Experimental data as given in patent US10093627B2, “Tetrahydroquinoline derivatives and their use as Epac inhibitors” (Institut National de la Sante et de la Recherche Medicale …, priority 2012, dated 2018).
pEC50, pIC50: −log10 of the molar value.

Columns and labels:
[1] = tested on: Epac1-induced H-Ras activation in rat neonatal cardiac myocytes; experiment: Epac1-induced H-Ras activation, H-Ras-GTP pull-down in rat neonatal cardiac myocytes; assay type: cell-based; details: rat neonatal cardiac myocytes transfected with Epac1; CE3F4 30 min; Sp-007 10 μM, 10 min; FIG. 3B
Experimental: The effects of CE3F4 to prevent Epac1-induced H-Ras activation was determined by extraction of GTP-loaded H-Ras from cell lysates with the immobilized Ras-binding domain of Raf1.
HEK293 cells (FIG. 3A) or rat neonatal cardiac myocytes (FIG. 3B) were transfected with Epac1. 24 h after transfection, cells were preincubated or not with CE3F4 for 30 min and were then treated or not with Sp-007 (10 μM) for 10 min. In FIG. 3C, HEK293 cells overexpressing β1-AR and transfected with Epac1 were pretreated or not with 20 μM of CE3F4 for 30 min and stimulated or not with Iso for 10 min. Amounts of H-Ras-GTP were determined by pull-down assays. The bar graph represents the mean±S.E.M. of 5 (FIG. 3A) or 2 (FIG. 3B, 3C) independent experiments. Results are expressed as the percentage of unstimulated control cells.
Cardiac myocytes were isolated as previously described by Wollert and colleagues (1996). HEK293 cells stably expressing the β1-adrenergic receptor (β1-AR) was a gift of Dr. Shenoy (Duke University). HEK293 cells were maintained in MEM with FBS (Foetal Bovine Serum; 10%) and penicillin-streptomycin (1%). All media, sera and antibiotics used in cell culture were purchased from Invitrogen (Cergy Pontoise, France). […]

Epac1 = biological target: T1, Epac1 (Homo sapiens, UniProt O95398); experiment: In vitro GEF activity (initial velocity of GDP exchange on Rap1A) of Epac1; assay type: biochemical
T1 construct: Recombinant human Epac1 (residues 149-881), deleted of its Dishevelled, Egl-10, and Pleckstrin (DEP) domain; made in house
T1 sequence (O95398 149-881 isoform O95398-3): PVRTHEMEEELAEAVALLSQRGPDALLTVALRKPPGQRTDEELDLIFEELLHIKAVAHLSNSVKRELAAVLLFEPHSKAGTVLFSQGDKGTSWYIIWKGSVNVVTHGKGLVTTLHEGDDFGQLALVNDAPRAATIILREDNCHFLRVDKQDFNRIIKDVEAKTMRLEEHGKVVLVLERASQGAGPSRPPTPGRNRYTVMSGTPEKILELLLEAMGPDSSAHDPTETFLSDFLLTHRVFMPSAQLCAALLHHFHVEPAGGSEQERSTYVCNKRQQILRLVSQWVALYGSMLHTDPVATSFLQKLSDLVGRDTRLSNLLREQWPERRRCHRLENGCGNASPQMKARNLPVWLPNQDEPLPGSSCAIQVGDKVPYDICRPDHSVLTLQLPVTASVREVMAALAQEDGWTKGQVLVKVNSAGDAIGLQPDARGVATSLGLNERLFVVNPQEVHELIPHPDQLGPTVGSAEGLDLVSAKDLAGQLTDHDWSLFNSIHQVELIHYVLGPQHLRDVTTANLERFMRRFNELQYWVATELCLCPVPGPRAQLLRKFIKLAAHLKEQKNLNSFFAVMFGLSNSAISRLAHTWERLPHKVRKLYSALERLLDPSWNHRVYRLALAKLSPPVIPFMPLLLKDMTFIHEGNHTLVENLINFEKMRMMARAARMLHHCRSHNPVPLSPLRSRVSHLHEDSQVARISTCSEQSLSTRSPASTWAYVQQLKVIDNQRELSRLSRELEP
Experimental: Protein NCBI Reference Sequences for human Epac1 and Epac2 are NP_006096 and NP_008954, respectively. Recombinant human Epac1 (residues 149-881), deleted of its Dishevelled, Egl-10, and Pleckstrin (DEP) domain, and human Rap1A were produced with GST as a fusion tag (D. Courilleau et al., Identification of a tetrahydroquinoline analog as a pharmacological inhibitor of the cAMP-binding protein Epac, J. Biol. Chem. 287 (2012) 44192-44202).
In vitro GDP exchange catalyzed by Epac was measured using purified recombinant Epac isoforms and Rap1A loaded with Bodipy-GDP, as described in D. Courilleau, et al (above mentioned). The GEF activity of Epac proteins was initiated by injection of the agonist. Stock solutions of CE3F4 and its analogs (12 mM in 100% DMSO) were kept at −20° C. and were diluted in assay buffer (0.67% final DMSO concentration) just before use for GDP exchange assays. The release of Bodipy-GDP was measured in real time as the decay of fluorescence. A single exponential was fit to the time-course data using the Graphpad Prism program. The initial velocity (Vi) of GDP exchange on Rap1 was calculated as described in D. Courilleau et al.).
Data are expressed as mean±S.D. Differences in quantitative variables were examined by unpaired one- or two-tailed Student's t test. EC50 and IC50 values were computed according to a four-parameters dose-response model and compared on the basis of the extra sum-of square F test, using Graphpad Prism. Two-tailed Wilcoxon matched-pair signed rank tests were performed using GraphPad Prism.

Inhibition of GEF activity of Epac1 compared with Epac2(AB) or Epac2(B) (Epac1; 50 μM racemic CE3F4, agonist 50 μM 007 or 300 μM cAMP, FIG. 6A): much more inhibited
pEC50 (Epac1; Epac1 GEF activity toward Rap1, Epac1 activated by 20 μM 007, mean of n=4 to 9 independent determinations): 4.97
pIC50 (Epac1; Epac1 activated by 300 μM cAMP): 4.96
Antagonism of cAMP-activated Epac1 GEF activity (Epac1; compound 30 μM, 300 μM cAMP, FIG. 6C): stronger antagonist
SMILES: CC1CCc2c(cc(Br)c(F)c2Br)N1C=O (racemic) [CE3F4]
Amount of Ras-GTP induced by Sp-007 [1]: decreased
